Laboratory results reported in patent publication US8937064B2, “Pyrazolo[1,5-a]pyrimidines useful as JAK2 inhibitors” (Vertex Pharmaceuticals Incorporated, priority 2007, dated 2015).

What was measured:
JAK3 = target: T1, JAK3 (Homo sapiens, UniProt P52333); test: JAK3 Inhibition Assay; format: biochemical; conditions: 1 nM JAK3, 1 μM poly(Glu)4Tyr, 5 μM ATP, 25° C., 33P incorporation
T1 sequence (P52333 1-1124): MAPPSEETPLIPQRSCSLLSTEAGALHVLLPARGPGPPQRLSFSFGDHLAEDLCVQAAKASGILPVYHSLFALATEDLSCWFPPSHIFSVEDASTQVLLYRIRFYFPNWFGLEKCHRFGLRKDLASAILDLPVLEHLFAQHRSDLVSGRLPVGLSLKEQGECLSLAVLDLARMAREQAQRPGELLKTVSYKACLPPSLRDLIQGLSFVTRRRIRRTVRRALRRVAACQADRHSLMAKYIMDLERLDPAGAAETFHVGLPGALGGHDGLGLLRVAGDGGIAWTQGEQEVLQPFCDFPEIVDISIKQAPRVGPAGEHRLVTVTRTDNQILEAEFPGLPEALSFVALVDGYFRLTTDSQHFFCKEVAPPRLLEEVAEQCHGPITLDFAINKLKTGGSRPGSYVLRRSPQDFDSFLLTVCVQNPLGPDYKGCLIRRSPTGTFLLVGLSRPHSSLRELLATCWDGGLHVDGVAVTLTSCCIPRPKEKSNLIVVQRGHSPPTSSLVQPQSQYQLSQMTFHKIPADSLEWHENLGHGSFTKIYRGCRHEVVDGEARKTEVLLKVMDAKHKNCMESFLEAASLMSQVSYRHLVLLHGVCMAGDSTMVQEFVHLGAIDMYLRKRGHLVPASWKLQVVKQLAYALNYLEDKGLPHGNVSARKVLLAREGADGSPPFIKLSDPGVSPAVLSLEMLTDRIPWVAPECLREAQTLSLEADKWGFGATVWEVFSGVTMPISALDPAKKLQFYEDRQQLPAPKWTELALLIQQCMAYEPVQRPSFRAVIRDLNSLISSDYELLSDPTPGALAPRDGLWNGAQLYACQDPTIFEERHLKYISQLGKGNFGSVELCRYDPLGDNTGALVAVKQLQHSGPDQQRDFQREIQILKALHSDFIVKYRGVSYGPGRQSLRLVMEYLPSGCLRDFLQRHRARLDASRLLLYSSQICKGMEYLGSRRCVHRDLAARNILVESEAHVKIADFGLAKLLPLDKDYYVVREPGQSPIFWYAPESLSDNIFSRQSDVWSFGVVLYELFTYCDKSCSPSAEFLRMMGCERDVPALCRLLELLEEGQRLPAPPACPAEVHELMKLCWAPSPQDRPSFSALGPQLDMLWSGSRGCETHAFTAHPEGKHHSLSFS

JAK-2 enzyme = JAK-2 enzyme (Homo sapiens, UniProt O60674); test: JAK2 Inhibition Assay
Sequence of JAK-2 enzyme (O60674 whole entry): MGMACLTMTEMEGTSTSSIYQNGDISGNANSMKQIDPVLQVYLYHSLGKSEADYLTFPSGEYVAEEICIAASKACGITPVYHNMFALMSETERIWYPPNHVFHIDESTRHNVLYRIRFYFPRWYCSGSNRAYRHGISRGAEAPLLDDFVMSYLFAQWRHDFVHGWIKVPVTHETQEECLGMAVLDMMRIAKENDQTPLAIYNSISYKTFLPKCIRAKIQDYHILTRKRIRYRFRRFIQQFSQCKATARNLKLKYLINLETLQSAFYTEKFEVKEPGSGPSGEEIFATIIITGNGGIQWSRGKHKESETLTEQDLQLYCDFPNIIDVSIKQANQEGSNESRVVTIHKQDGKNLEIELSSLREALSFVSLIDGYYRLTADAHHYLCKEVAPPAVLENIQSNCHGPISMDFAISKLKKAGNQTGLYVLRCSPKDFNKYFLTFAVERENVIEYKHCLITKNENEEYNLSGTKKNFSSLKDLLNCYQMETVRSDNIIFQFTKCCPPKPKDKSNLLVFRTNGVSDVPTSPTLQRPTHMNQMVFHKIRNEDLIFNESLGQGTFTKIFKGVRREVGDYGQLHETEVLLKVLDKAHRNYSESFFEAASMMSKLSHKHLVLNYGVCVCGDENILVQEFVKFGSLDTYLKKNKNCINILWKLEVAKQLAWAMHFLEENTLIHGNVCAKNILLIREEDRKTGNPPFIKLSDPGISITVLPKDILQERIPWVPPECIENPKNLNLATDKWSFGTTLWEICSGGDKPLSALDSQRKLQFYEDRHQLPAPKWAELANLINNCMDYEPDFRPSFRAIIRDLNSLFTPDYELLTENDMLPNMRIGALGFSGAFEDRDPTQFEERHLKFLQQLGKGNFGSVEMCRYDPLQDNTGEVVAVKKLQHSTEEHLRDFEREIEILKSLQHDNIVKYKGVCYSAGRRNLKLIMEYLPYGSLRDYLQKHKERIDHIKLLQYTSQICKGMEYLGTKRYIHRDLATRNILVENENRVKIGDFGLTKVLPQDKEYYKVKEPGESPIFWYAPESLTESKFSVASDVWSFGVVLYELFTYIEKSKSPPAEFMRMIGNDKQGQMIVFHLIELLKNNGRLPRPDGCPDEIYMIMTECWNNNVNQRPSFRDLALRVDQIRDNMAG
Procedure: Reactions were carried out in a kinase buffer containing 100 mM HEPES (pH 7.4), 1 mM DTT, 10 mM MgCl2, 25 mM NaCl, and 0.01% BSA. Substrate concentrations in the assay were 5 μM ATP (200 uCi/μmole ATP) and 1 μM poly(Glu)4Tyr. Reactions were carried out at 25° C. and 1 nM JAK3.
To each well of a 96 well polycarbonate plate was added 1.5 μl of a candidate JAK3 inhibitor along with 50 μl of kinase buffer containing 2 μM poly(Glu)4Tyr and 10 μM ATP. This was then mixed and 50 μl of kinase buffer containing 2 nM JAK3 enzyme was added to start the reaction. After 20 minutes at room temperature (25° C.), the reaction was stopped with 50 μl of 20% trichloroacetic acid (TCA) that also contained 0.4 mM ATP. The entire contents of each well were then transferred to a 96 well glass fiber filter plate using a TomTek Cell Harvester. After washing, 60 μl of scintillation fluid was added and ^33P incorporation detected on a Perkin Elmer TopCount.

| Compound | Ki (JAK3) [nM] | Ki (JAK-2 enzyme) [nM] |
| --- | --- | --- |
| C[C@H](Nc1cc(-c2cnn3cccnc23)nc(OCCN2CCOCC2)n1)c1ccc(F)cc1F [Compound 213] | 10 to 100 | < 10 |
| C[C@H](Nc1cc(-c2cnn3cccnc23)nc(OC2CCNC2)n1)c1ccc(F)cc1F (stereo partly drawn) [Compound 218] | 100 to 500 | 10 to 100 |
| C[C@H](Nc1cc(-c2cnn3cccnc23)nc(OCC2CCCN(C)C2)n1)c1ccc(F)cc1F (stereo partly drawn) [Compound 215] | 10 to 100 | < 10 |
| CCN(CC)CCOc1nc(N[C@@H](C)c2ccc(F)cc2F)cc(-c2cnn3cccnc23)n1 [Compound 208] | 10 to 100 | < 10 |
| O=C(Nc1ccnc(-c2cnn3cccnc23)c1)c1ccc(F)cc1F [Compound 229] | 500 to 5000 | 100 to 500 |
| CCC(C#N)Oc1nc(N[C@@H](C)c2ccc(F)cc2F)cc(-c2cnn3cccnc23)n1 (stereo partly drawn) [Compound 192] | 10 to 100 | < 10 |
| C[C@H](Oc1cc(-c2c(N)nn3cccnc23)ncn1)c1ccccc1 [Compound 68] | 10 to 100 | < 10 |
| CCC[C@@H](Nc1cc(-c2cnn3cccnc23)ncn1)c1ccc(F)cc1F [Compound 123] | 100 to 500 | 10 to 100 |
| Nc1nn2cccnc2c1-c1cc(OCc2ccc(C(F)(F)F)cc2)ncn1 [Compound 72] | > 5000 | 100 to 500 |
| CC[C@H](Nc1ccnc(-c2cnn3cccnc23)n1)c1ccc(F)c(F)c1 [Compound 225] | 500 to 5000 | 10 to 100 |
| C=CCOCCOc1nc(N[C@@H](C)c2ccc(F)cc2F)cc(-c2cnn3cccnc23)n1 [Compound 221] | 10 to 100 | < 10 |
| C[C@@H](Oc1cc(-c2c(N)nn3cccnc23)ncn1)c1ccccc1 [Compound 67] | 100 to 500 | 10 to 100 |
| Nc1nn2cccnc2c1-c1cc(N2CCCC2c2ccccc2)ncn1 (stereo not drawn) [Compound 57] | 10 to 100 | < 10 |
| C[C@H](Nc1cc(-c2cnn3cccnc23)nc(NC(=O)CN2CCOCC2)n1)c1ccc(F)cc1F [Compound 186] | 100 to 500 | < 10 |
| Nc1nn2cccnc2c1-c1cc(OC(c2ccccc2)C2CC2)ncn1 (stereo not drawn) [Compound 66] | > 5000 | 500 to 5000 |
| C[C@H](Nc1cc(-c2c(N)nn3cc(F)cnc23)ncn1)c1ccc(F)cc1F [Compound 105] | 10 to 100 | < 10 |
| Nc1nn2cccnc2c1-c1cc(N[C@H]2CCCc3ccccc32)ncn1 [Compound 76] | 100 to 500 | 10 to 100 |
| C[C@H](Nc1cc(-c2cnn3cccnc23)nc(OCCCNCc2ccncc2)n1)c1ccc(F)cc1F [Compound 220] | 10 to 100 | < 10 |
| Nc1nn2cccnc2c1-c1cc(N2CCc3ccccc3C2)ncn1 [Compound 42] | 100 to 500 | 10 to 100 |
| CC(C)[C@H](Nc1cc(-c2c(N)nn3ccc(C(F)(F)F)nc23)ncn1)c1ccc(F)cc1F [Compound 136] | 100 to 500 | 10 to 100 |
| CNCCOc1nc(N[C@@H](C)c2ccc(F)cc2F)cc(-c2cnn3cccnc23)n1 [Compound 199] | 10 to 100 | < 10 |
| CNC(=O)CC(Nc1cc(-c2cnn3cccnc23)ncn1)c1ccc(F)cc1 (stereo not drawn) [Compound 141] | 10 to 100 | < 10 |
| C[C@H](Nc1cc(-c2cnn3cccnc23)nc(OCCCN(C)C)n1)c1ccc(F)cc1F [Compound 211] | 10 to 100 | < 10 |
| COc1cc2c(cc1OC)CN(c1cc(-c3c(N)nn4cccnc34)ncn1)CC2 [Compound 35] | 100 to 500 | 100 to 500 |
| C[C@H](Nc1cc(-c2cnn3cccnc23)nc(OCC2CCCN2)n1)c1ccc(F)cc1F (stereo partly drawn) [Compound 216] | 100 to 500 | < 10 |

Results, then the compound that gave them:

| Ki (JAK3) [nM] | Ki (JAK-2 enzyme) [nM] | Compound |
| --- | --- | --- |
| 100 to 500 | 10 to 100 | CC#CC(C)Oc1nc(N[C@@H](C)c2ccc(F)cc2)cc(-c2c(N)nn3cccnc23)n1 (stereo partly drawn) [Compound 181] |
| 10 to 100 | < 10 | C[C@H](Nc1cc(-c2cnn3cccnc23)nc(N)n1)c1ccc(F)cc1F [Compound 147] |
| 100 to 500 | 10 to 100 | CCC[C@@H](Nc1cc(-c2c(N)nn3cccnc23)ncn1)c1ccc(F)c(F)c1 [Compound 97] |
| 10 to 100 | < 10 | CCC[C@H](Nc1cc(-c2c(N)nn3cccnc23)ncn1)c1ccc(F)c(F)c1 [Compound 98] |
| 10 to 100 | < 10 | C[C@H](Nc1cc(-c2c(N)nn3cccnc23)nc(O)n1)c1ccc(F)cc1 [Compound 161] |
| < 10 | < 10 | C[C@H](Nc1cc(-c2c(N)nn3cccnc23)nc(S(C)(=O)=O)n1)c1ccc(F)cc1 [Compound 100] |
| 10 to 100 | < 10 | C[C@H](Nc1cc(-c2c(N)nn3cccnc23)nc(NCCN2CCOCC2)n1)c1ccc(F)cc1 [Compound 124] |
| 10 to 100 | < 10 | CC[C@H](Nc1cc(-c2c(N)nn3cccnc23)ncn1)c1ccc(F)cc1Cl [Compound 82] |
| < 10 | < 10 | COCCOc1nc(N[C@@H](C)c2ccc(F)cc2F)cc(-c2c(N)nn3cccnc23)n1 [Compound 126] |
| 100 to 500 | 10 to 100 | Cc1ccc(CNc2cc(-c3c(N)nn4cccnc34)ncn2)o1 [Compound 26] |
| 500 to 5000 | 100 to 500 | C[C@H](Nc1cc(-c2c(N)nn3cccnc23)nc(OCCCC2CCCC2)n1)c1ccc(F)cc1 [Compound 177] |
| 100 to 500 | 10 to 100 | C[C@H](Nc1cc(-c2c(N)nn3cccnc23)nc(N2CC[C@H](F)C2)n1)c1ccc(F)cc1 [Compound 191] |
| 500 to 5000 | 10 to 100 | CCC#CC(C)Oc1nc(N[C@@H](C)c2ccc(F)cc2)cc(-c2c(N)nn3cccnc23)n1 (stereo partly drawn) [Compound 179] |
| 10 to 100 | < 10 | C[C@H](Nc1cc(-c2c(N)nn3cccnc23)nc(OCC2CCOC2)n1)c1ccc(F)cc1F (stereo partly drawn) [Compound 130] |
| 10 to 100 | < 10 | CCCOc1nc(N[C@@H](C)c2ccc(F)cc2)cc(-c2c(N)nn3cccnc23)n1 [Compound 153] |
| 100 to 500 | 10 to 100 | CC(C)Oc1nc(N[C@@H](C)c2ccc(F)cc2F)cc(-c2c(N)nn3cccnc23)n1 [Compound 129] |
| 10 to 100 | 10 to 100 | C[C@H](Nc1cc(-c2c(N)nn3ccc(C(F)(F)F)nc23)ncn1)c1ccc(F)cc1 [Compound 134] |
| 100 to 500 | < 10 | CC[C@H](Nc1cc(-c2c(N)nn3cccnc23)ncn1)c1ccc(Cl)cc1F [Compound 83] |
| 10 to 100 | 10 to 100 | C[C@H](Nc1cc(-c2c(N)nn3cccnc23)nc(OCC2CCCN(C)C2)n1)c1ccc(F)cc1 (stereo partly drawn) [Compound 171] |
| 100 to 500 | < 10 | CC#CCCOc1nc(N[C@@H](C)c2ccc(F)cc2)cc(-c2c(N)nn3cccnc23)n1 [Compound 155] |
| 10 to 100 | < 10 | C=CCOc1nc(N[C@@H](C)c2ccc(F)cc2)cc(-c2c(N)nn3cccnc23)n1 [Compound 169] |
| 10 to 100 | < 10 | C=CCCOc1nc(N[C@@H](C)c2ccc(F)cc2)cc(-c2c(N)nn3cccnc23)n1 [Compound 170] |
| 100 to 500 | 10 to 100 | CC(C)[C@H](Nc1cc(-c2c(N)nn3cccnc23)nc(N2CCOCC2)n1)c1ccc(F)cc1F [Compound 125] |
| 100 to 500 | 10 to 100 | CC/C=C\COc1nc(N[C@@H](C)c2ccc(F)cc2)cc(-c2c(N)nn3cccnc23)n1 [Compound 165] |
| 100 to 500 | 10 to 100 | C[C@H](Nc1cc(-c2c(N)nn3cccnc23)nc(OCC2CCCN2)n1)c1ccc(F)cc1F (stereo partly drawn) [Compound 142] |
| 100 to 500 | 10 to 100 | C=CCCCOc1nc(N[C@@H](C)c2ccc(F)cc2)cc(-c2c(N)nn3cccnc23)n1 [Compound 182] |
| 500 to 5000 | 100 to 500 | CC(C)[C@@H](Nc1cc(-c2c(N)nn3cccnc23)nc(S(C)(=O)=O)n1)c1ccc(F)cc1F [Compound 113] |
| 10 to 100 | < 10 | CCC[C@H](Nc1cc(-c2cnn3cccnc23)ncn1)c1ccc(F)cc1 [Compound 116] |
| 10 to 100 | < 10 | CC[C@H](Nc1cc(-c2c(N)nn3cccnc23)ncn1)c1ccc(F)c(F)c1 [Compound 62] |
